This is an account of results in the supplement of paper PMC10307832.

What all share (test): relative viability (nuclei count vs DMSO), 5 days (fraction); higher = more cells survive
Compound in one assay: C[C@@H](Oc1cc(-c2cnn(C3CCNCC3)c2)cnc1N)c1c(Cl)ccc(F)c1Cl [Crizotinib]
The essentials: (§1)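 Lung cancer cell lines in 1536-well plates were kept overnight at 37 °C, then pinned with five library-drug doses (not always all listed) spaced by √10 on vehicle-anchored plates. After 5 days without medium change, cells were fixed, permeabilised and Hoechst-stained in one step, imaged at 4×, and nuclei were counted with MetaXpress. Viability is treated-well nuclei divided by vehicle-well nuclei, taken as the median over plates. Plates passed only with control CV below 25% and at least one doubling.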

Compound in another assay: CC(C)C[C@H](NC(=O)[C@H](CCc1ccccc1)NC(=O)CN1CCOCC1)C(=O)N[C@@H](Cc1ccccc1)C(=O)N[C@@H](CC(C)C)C(=O)[C@@]1(C)CO1 [Carfilzomib]
The essentials:
as §1

Compound in the next assay: O=C(c1cc(Cc2n[nH]c(=O)c3ccccc23)ccc1F)N1CCN(C(=O)C2CC2)CC1 [Olaparib]
The essentials:
as §1

Compound in the assay “Olaparib + Pemetrexed”: O=C(c1cc(Cc2n[nH]c(=O)c3ccccc23)ccc1F)N1CCN(C(=O)C2CC2)CC1 [Olaparib] + Nc1nc2[nH]cc(CCc3ccc(C(=O)N[C@@H](CCC(=O)O)C(=O)O)cc3)c2c(=O)[nH]1 [Pemetrexed] (partner 0.2 µM)
The method in brief:
(§2)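 For relative viability, nuclei counts in treated wells were divided by those in vehicle wells. Lung cancer cell lines had been pin-tool dosed in 1536-well plates the day after seeding and cultured for 5 days, then fixed and stained in one step (final 0.05% Triton X-100, 1% formaldehyde, 1 ug/ml Hoechst) and imaged at 4×. Doses were one drug alone or a fixed anchor-drug dose plus five library-drug doses (not always all listed) in √10 steps, and values are duplicate-plate medians.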

Compound in the assay “Olaparib + Vorinostat”: O=C(c1cc(Cc2n[nH]c(=O)c3ccccc23)ccc1F)N1CCN(C(=O)C2CC2)CC1 [Olaparib] + O=C(CCCCCCC(=O)Nc1ccccc1)NO [Vorinostat] (partner 1 µM)
The essentials: as §2

NCI-H1793: the relative viability in the assay with Crizotinib (0.03162 µM) amounted to 0.987; with Crizotinib (1 µM) it was 1.09; with Carfilzomib (0.003162 µM), 1.03; with Carfilzomib (0.01 µM), 0.827; with Carfilzomib (0.03162 µM), 0.9; in the assay with Carfilzomib (0.1 µM), 0.165. The relative viability in the assay with Olaparib (0.08 µM) amounted to 0.93; with Olaparib (0.253 µM), 0.856; in the assay with Olaparib (2.53 µM), 0.824; with Olaparib (8 µM), 0.776; with Olaparib (8 µM, anchor plate), 0.911; with Olaparib + Pemetrexed (first compound 0.08 µM), 0.647. Also, the relative viability with Olaparib + Pemetrexed (first compound 0.253 µM) was determined as 0.652; with Olaparib + Pemetrexed (first compound 2.53 µM), 0.841; with Olaparib + Pemetrexed (first compound 8 µM), 0.79; with Olaparib + Vorinostat (first compound 0.08 µM) it was 0.841; in the assay with Olaparib + Vorinostat (first compound 0.253 µM), 0.707; with Olaparib + Vorinostat (first compound 2.53 µM) it was 0.683. Further, in the assay with Olaparib + Vorinostat (first compound 8 µM), the relative viability was 0.679.
